Laboratory results as given in the OligoGym collection.
Values joined by “and” are separate entries in the source; they are usually repeats but may differ in a detail not shown here. Identical values can stand only once. After the bases stand the sugars from the 5' end (letter, count) and the backbone: PS all phosphorothioate, else s phosphorothioate and o phosphodiester by linkage. Methylation of C is not given here. e = 2'-O-(2-methoxyethyl) (MOE); k = constrained ethyl (cEt); d = 2'-deoxy (DNA); m = 2'-O-methyl

Assays:
[1] = target: IRF4; conditions: ASO
[2] = target: HSD17B13; conditions: ASO, HepaRG

Row | Sequence | target mRNA inhibition ([2]; 1 µM) | also measured
1 | TGACATCATTTAGGTA (sugars k3 d10 k3, PS) | – | target mRNA inhibition ([1]; SK-MEL-28, 4 µM): 54%
2 | AGCTCAATAATCTCCC (sugars k3 d10 k3, PS) | – | target mRNA inhibition ([1]; MM.1R, 1 µM): 6%
3 | TGTGATAGCTGAGCTG (sugars kkdddddddddekeke, PS) | – | target mRNA inhibition ([1]; MM.1R, 1 µM): 41%
4 | GAAGTTTACACTGGAT (sugars k3 d10 k3, PS) | – | target mRNA inhibition ([1]; SK-MEL-28, 4 µM): 65%
5 | TGTGTATTACTCTTAG (sugars kkdddddddddekeke, PS) | – | target mRNA inhibition ([1]; MM.1R, 1 µM): 54% and 66%
6 | TTTATGTTAGCCAATT (sugars kkdddddddddkekek, PS) | – | target mRNA inhibition ([1]; MM.1R, 1 µM): 9% and 15%
7 | GTTCTAGTCGCGCAAG (sugars k3 d10 k3, PS) | – | target mRNA inhibition ([1]; SK-MEL-28, 4 µM): 27%
8 | AGCTGAATGCTCTCCA (sugars k3 d10 k3, PS) | – | target mRNA inhibition ([1]; SK-MEL-28, 4 µM): 78%
9 | AGCATTTTATCATCCG (sugars kkdddddddddekeke, PS) | – | target mRNA inhibition ([1]; MM.1R, 1 µM): 46%
10 | ACAATACAGGATAGAG (sugars k3 d10 k3, PS) | 23% | –
11 | CTCTATTGGGCCAGGC (sugars k3 d10 k3, PS) | 46% | –
12 | GTTTAGATTGCATAAG (sugars k3 d10 k3, PS) | 46% | –
13 | TGGATATACTGTCCCA (sugars k3 d10 k3, PS) | 24% | –
14 | CCAATATGCTCTGTCG (sugars k3 d10 k3, PS) | 65% | –
15 | TTCCATCTATCAGACT (sugars k3 d10 k3, PS) | 33% | –
16 | GAGTGCATCTTAAGAT (sugars k3 d10 k3, PS) | 43% | –
17 | CCTGTGTTAGCTTTAA (sugars k3 d9 k3 e1, PS) | 66% | –
18 | TCCACTTTTGGTGGAC (sugars k3 d10 k3, PS) | 16% | –
19 | ATTTAAAATAGAGTCG (sugars k3 d10 k3, PS) | 24% | –
20 | CAAGACTTAAACACCA (sugars k3 d10 k3, PS) | 55% | –
21 | GTTATTCTCTTGACAA (sugars k3 d9 k3 e1, PS) | 35% | –
22 | TTAGTACCAAGACACT (sugars k3 d10 k3, PS) | 41% | –
23 | ACAGCATCAAGACATT (sugars k3 d10 k3, PS) | 53% | –
24 | TCCCAACCAAACTTCC (sugars k3 d1 m1 d8 k3, PS) | 43% | –
25 | ATCTCTGGGACCAAGG (sugars k3 d9 k3 e1, PS) | 53% | –
26 | TAGTGGACTTCATTAG (sugars k3 d9 k3 e1, PS) | 22% | –
27 | TCACAAAGTCCCTGAC (sugars k3 d10 k3, PS) | 11% | –

Row | Sequence | target mRNA inhibition ([2]; 1 µM) | also measured
28 | CATAGGCTTAGTGTAG (sugars k3 d10 k3, PS) | 38% | –
29 | TGAATCATGATTGAAT (sugars k3 d10 k3, PS) | 38% | –
30 | ACTAACCAATTATATG (sugars k3 d10 k3, PS) | 6% | –
31 | TTATGAAGTTAGTATA (sugars k3 d10 k3, PS) | 31% | –
32 | ATGTATCTTATAAGAC (sugars kkdddddddddkekek, PS) | 18% | –
33 | TCTCTTAGCTGTGCAC (sugars kkdddddddddkekek, PS) | 36% | –
34 | ATAACTGAGCTAGACA (sugars k3 d10 k3, PS) | 71% | –
35 | TTAAACCTTCCCTGTG (sugars kkdddddddddkekek, PS) | 0% | –
36 | CCAGAGCATTCATCAG (sugars k3 d10 k3, PS) | 83% | target mRNA inhibition ([2]; 0.02 µM): 0%; target mRNA inhibition ([2]; 0.078 µM): 13%; target mRNA inhibition ([2]; 0.313 µM): 41%; target mRNA inhibition ([2]; 1.25 µM): 71%; target mRNA inhibition ([2]; 5 µM): 79%
37 | TAGGCTTAGTGTAGAA (sugars k3 d10 k3, PS) | 38% | –
38 | GTTGGAAGATGTATAC (sugars k3 d10 k3, PS) | 53% | –
39 | CAGAACCAATATGCTC (sugars k3 d10 k3, PS) | 56% | –
40 | TGAGAAGGCGGTATCA (sugars k3 d10 k3, PS) | 20% | –
41 | GAAGAAGGACTTTCAT (sugars k3 d10 k3, PS) | 40% | –
42 | CCAACCAAACTTCCAG (sugars kkdddddddddkekek, PS) | 15% | –
43 | TCCATAAAGCTGGATT (sugars k3 d10 k3, PS) | 13% | –
44 | AATTCATAAGTAGTCT (sugars k3 d10 k3, PS) | 28% | –
45 | ACGATGTGGCCATGAT (sugars k3 d10 k3, PS) | 52% | –
46 | TAGGCTAAAATGGTCA (sugars k3 d10 k3, PS) | 59% | –
47 | TAGTCTTCAGCAAAGT (sugars k3 d9 k3 e1, PS) | 36% | –
48 | ATATTCCAGGATTTGC (sugars k3 d10 k3, PS) | 26% | –
49 | ATGTGATTGAGTTCTC (sugars k3 d10 k3, PS) | 36% | –
50 | GGGAGGTAGCTTTTGT (sugars k3 d10 k3, PS) | 10% | –
51 | GGAGGAGGTACTGTCT (sugars k3 d10 k3, PS) | 44% | –
52 | ATAGTCCATGCAAAAG (sugars k3 d9 k3 e1, PS) | 29% | –
53 | CACCTTTCATAATGTA (sugars k3 d10 k3, PS) | 59% | –
